# Results reported in patent US10065963B2 (Incyte Corporation, priority 2015, dated 2018).
# Structures can show the parent of a compound that is named as a salt.
# Legend:
# [1] = tested on: Phosphorylated Ribosomal Protein S6 (RPS6) in THP-1 cells; assay: THP-1 RPS6 ELISA assay; type: cell-based, human; conditions: Homo sapiens, THP-1, THP-1 cells, 10 nM MCP-1; read-out: PI3Kγ_THP1_RPS6_ELISA IC50
# [2] = molecular target: PI3Kγ (p110γ) Recombinant Human Protein (Homo sapiens (Human), UniProt P48736); assay: PI3K-γ scintillation proximity assay; type: biochemical; conditions: 2 μM ATP, 20 μM PIP2
# PI3Kγ (p110γ) Recombinant Human Protein, sequence (P48736 whole entry): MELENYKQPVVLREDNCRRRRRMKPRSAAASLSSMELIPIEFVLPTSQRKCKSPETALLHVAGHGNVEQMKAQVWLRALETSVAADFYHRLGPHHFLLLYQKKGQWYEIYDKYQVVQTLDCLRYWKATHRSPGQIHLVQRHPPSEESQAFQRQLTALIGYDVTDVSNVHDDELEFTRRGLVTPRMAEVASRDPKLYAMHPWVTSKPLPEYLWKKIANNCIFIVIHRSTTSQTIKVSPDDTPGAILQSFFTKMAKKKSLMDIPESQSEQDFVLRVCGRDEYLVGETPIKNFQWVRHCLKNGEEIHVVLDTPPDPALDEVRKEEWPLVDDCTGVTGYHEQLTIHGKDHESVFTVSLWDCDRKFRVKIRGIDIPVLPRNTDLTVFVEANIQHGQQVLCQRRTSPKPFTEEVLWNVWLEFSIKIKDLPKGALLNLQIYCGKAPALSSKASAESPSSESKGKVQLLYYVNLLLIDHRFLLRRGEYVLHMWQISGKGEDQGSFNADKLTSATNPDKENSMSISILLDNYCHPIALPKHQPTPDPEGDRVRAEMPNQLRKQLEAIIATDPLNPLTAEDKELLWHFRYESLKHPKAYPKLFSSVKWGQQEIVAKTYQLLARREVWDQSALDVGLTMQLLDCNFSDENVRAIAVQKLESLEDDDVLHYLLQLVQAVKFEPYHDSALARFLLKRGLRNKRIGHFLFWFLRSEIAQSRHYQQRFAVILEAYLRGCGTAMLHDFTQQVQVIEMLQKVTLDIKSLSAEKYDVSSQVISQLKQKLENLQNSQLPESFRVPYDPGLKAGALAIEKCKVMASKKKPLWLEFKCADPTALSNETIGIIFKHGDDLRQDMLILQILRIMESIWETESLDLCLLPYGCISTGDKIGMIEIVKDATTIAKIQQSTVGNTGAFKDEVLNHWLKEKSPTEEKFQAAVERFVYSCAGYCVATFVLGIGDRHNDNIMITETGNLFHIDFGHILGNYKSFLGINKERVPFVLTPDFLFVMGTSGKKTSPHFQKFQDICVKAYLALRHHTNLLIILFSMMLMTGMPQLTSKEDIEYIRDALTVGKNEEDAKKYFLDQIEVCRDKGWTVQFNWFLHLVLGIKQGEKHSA
# [3] = molecular target: PI3Kδ (p110δ/p85α) Recombinant Human Protein (Homo sapiens (Human), UniProt O00329); assay: PI3Kδ scintillation proximity assay; type: biochemical; conditions: 2 μM ATP, 20 μM PIP2
# PI3Kδ (p110δ/p85α) Recombinant Human Protein, sequence (O00329 whole entry): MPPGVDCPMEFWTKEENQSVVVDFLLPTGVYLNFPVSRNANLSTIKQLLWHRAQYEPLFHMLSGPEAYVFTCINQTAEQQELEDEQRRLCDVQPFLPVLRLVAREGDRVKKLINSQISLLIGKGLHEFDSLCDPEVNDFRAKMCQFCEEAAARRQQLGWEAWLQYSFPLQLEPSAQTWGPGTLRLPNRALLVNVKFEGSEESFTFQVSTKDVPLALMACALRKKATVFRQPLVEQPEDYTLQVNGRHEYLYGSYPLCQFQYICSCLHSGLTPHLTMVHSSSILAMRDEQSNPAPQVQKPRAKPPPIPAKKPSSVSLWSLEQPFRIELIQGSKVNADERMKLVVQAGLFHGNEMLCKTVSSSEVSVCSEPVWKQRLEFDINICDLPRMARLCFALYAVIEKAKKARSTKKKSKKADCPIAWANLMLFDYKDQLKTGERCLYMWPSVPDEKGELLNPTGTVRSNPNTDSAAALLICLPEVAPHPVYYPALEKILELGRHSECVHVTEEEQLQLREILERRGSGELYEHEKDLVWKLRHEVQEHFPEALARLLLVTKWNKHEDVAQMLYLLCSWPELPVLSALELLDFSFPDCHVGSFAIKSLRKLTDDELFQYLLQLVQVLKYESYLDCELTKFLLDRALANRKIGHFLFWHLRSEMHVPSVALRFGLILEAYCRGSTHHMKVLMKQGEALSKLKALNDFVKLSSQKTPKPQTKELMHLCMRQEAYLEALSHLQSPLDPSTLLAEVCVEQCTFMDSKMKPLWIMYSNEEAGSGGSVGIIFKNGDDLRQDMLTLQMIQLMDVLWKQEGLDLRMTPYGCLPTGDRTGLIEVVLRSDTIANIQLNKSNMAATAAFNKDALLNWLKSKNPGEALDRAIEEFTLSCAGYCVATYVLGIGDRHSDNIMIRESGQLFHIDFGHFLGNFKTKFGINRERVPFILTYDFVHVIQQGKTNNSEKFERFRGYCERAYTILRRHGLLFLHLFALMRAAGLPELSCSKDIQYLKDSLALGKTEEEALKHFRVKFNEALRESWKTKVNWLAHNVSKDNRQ
# PI3Kδ (p110δ/p85α) Recombinant Human Protein, sequence (P27986 whole entry partner): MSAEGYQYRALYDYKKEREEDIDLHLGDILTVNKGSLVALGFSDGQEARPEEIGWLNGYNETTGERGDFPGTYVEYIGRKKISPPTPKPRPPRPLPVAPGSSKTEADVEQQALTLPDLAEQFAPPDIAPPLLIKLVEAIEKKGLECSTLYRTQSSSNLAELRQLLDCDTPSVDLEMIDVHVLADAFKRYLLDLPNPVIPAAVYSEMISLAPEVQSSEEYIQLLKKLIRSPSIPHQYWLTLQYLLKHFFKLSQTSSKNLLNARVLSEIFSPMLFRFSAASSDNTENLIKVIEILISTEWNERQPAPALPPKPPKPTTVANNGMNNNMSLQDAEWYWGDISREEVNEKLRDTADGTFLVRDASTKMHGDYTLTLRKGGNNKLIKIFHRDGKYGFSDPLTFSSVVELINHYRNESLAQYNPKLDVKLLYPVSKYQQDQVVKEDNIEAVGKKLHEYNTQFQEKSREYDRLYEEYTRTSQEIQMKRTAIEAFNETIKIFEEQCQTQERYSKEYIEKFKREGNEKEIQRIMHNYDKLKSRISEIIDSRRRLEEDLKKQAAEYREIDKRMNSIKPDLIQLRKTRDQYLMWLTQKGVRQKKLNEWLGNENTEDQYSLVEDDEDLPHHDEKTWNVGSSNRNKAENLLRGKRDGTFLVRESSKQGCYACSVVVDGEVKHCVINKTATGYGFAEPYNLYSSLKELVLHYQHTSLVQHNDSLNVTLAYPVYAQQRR
IC50 [1],IC50 [2],IC50 [3],SMILES
< 500 nM,,,CCOc1c(C(C)NC(=O)c2c(N)nn3cccnc23)cc(Cl)c2cnn(C)c12 (stereo not drawn)
< 500 nM,< 100 nM,< 100 nM,"CC(NC(=O)c1c(N)nn2cccnc12)c1cc(Cl)c2cncn2c1N1CCC(C#N)C1 (racemic) [Example 32, 2-Amino-N-(1-(8-chloro-5-(3-cyanopyrrolidin-1-yl)imidazo[1,5-a]pyridin-6-yl)ethyl)pyrazolo[1,5-a]pyrimidine-3-carboxamide trifluoroacetate salt]"
< 500 nM,< 100 nM,< 100 nM,"CC(NC(=O)c1c(N)nn2cccnc12)c1cc(Cl)c2cncn2c1N1C[C@H](O)[C@@H](F)C1 (mixture of isomers) [Example 35, 2-Amino-N-(1-(8-chloro-5-((3S,4S)-3-fluoro-4-hydroxypyrrolidin-1-yl)imidazo[1,5-a]pyridin-6-yl)ethyl)pyrazolo[1,5-a]pyrimidine-3-carboxamide trifluoroacetate salt]"
< 500 nM,< 100 nM,< 500 nM,"CC(NC(=O)c1c(N)nn2cccnc12)c1cc(Cl)c2cn[nH]c2c1N1CCC(O)C1 (racemic) [Example 90A, 2-Amino-N-{1-[4-chloro-7-(3-hydroxypyrrolidin-1-yl)-2H-indazol-6-yl]ethyl}pyrazolo[1,5-a]pyrimidine-3-carboxamide bis(trifluoroacetate)]"
< 500 nM,< 100 nM,< 100 nM,"Cc1ncc2c(Cl)cc(C(C)NC(=O)c3c(N)nn4cccnc34)c(-c3cn[nH]c3)n12 (racemic) [Example 118, 2-Amino-N-{1-[8-chloro-3-methyl-5-(1H-pyrazol-4-yl)imidazo[1,5-a]pyridin-6-yl]ethyl}pyrazolo[1,5-a]pyrimidine-3-carboxamide trifluoroacetate salt]"
< 500 nM,< 100 nM,< 500 nM,"Cc1ncc2c(Cl)cc(C(C)NC(=O)c3c(N)nn4cccnc34)c(-c3cnn(C)c3)n12 (racemic) [Example 119, 2-Amino-N-{1-[8-chloro-3-methyl-5-(1-methyl-1H-pyrazol-4-yl)imidazo[1,5-a]pyridin-6-yl]ethyl}pyrazolo[1,5-a]pyrimidine-3-carboxamide trifluoroacetate salt]"
< 500 nM,< 100 nM,< 100 nM,"Cc1ncc2c(Cl)cc(C(C)NC(=O)c3c(N)nn4cccnc34)c(-c3cccnc3)n12 (racemic) [Example 120, 2-Amino-N-[1-(8-chloro-3-methyl-5-pyridin-3-ylimidazo[1,5-a]pyridin-6-yl)ethyl]pyrazolo[1,5-a]pyrimidine-3-carboxamide trifluoroacetate salt]"
< 500 nM,< 100 nM,< 500 nM,"Cc1ncc2c(Cl)cc(C(C)NC(=O)c3c(N)nn4cccnc34)c(-c3ccccc3)n12 (racemic) [Example 121, 2-Amino-N-[1-(8-chloro-3-methyl-5-phenylimidazo[1,5-a]pyridin-6-yl)ethyl]pyrazolo[1,5-a]pyrimidine-3-carboxamide trifluoroacetate salt]"
< 500 nM,< 100 nM,< 100 nM,"Cc1nc(Cl)c2c(Cl)cc(C(C)NC(=O)c3c(N)nn4cccnc34)c(-c3cn[nH]c3)n12 (racemic) [Example 122, 2-Amino-N-{1-[1,8-dichloro-3-methyl-5-(1H-pyrazol-4-yl)imidazo[1,5-a]pyridin-6-yl]ethyl}pyrazolo[1,5-a]pyrimidine-3-carboxamide trifluoroacetate salt]"
< 500 nM,< 100 nM,< 100 nM,"Cc1nc(F)c2c(Cl)cc(C(C)NC(=O)c3c(N)nn4cccnc34)c(-c3cn[nH]c3)n12 (racemic) [Example 123, 2-Amino-N-{1-[8-chloro-1-fluoro-3-methyl-5-(1H-pyrazol-4-yl)imidazo[1,5-a]pyridin-6-yl]ethyl}pyrazolo[1,5-a]pyrimidine-3-carboxamide trifluoroacetate salt]"
> 1000 nM,< 500 nM,≥ 2000 nM,"Cc1nc(C(F)(F)F)c2c(Cl)cc(C(C)NC(=O)c3c(N)nn4cccnc34)c(-c3ccccc3)n12 (racemic) [Example 124, 2-Amino-N-{1-[8-chloro-3-methyl-5-phenyl-1-(trifluoromethyl)imidazo[1,5-a]pyridin-6-yl]ethyl}pyrazolo[1,5-a]pyrimidine-3-carboxamide trifluoroacetate salt]"
< 500 nM,< 100 nM,< 500 nM,"Cc1nc(C#N)c2c(Cl)cc(C(C)NC(=O)c3c(N)nn4cccnc34)c(-c3ccccc3)n12 (racemic) [Example 125, 2-Amino-N-[1-(8-chloro-1-cyano-3-methyl-5-phenylimidazo[1,5-a]pyridin-6-yl)ethyl]pyrazolo[1,5-a]pyrimidine-3-carboxamide trifluoroacetate salt]"
< 500 nM,< 100 nM,< 2000 nM,"C#Cc1nc(C)n2c(-c3ccccc3)c(C(C)NC(=O)c3c(N)nn4cccnc34)cc(Cl)c12 (racemic) [Example 126, 2-Amino-N-[1-(8-chloro-1-ethynyl-3-methyl-5-phenylimidazo[1,5-a]pyridin-6-yl)ethyl]pyrazolo[1,5-a]pyrimidine-3-carboxamide]"
,< 2000 nM,≥ 2000 nM,"CCOc1c(C(C)NC(=O)c2c(N)nn3cccnc23)cc(Cl)c2cn(C(C)C)nc12 (stereo not drawn) [Example 11a, 2-amino-N-(1-(4-chloro-7-ethoxy-2-isopropyl-2H-indazol-6-yl)ethyl)pyrazolo[1,5-a]pyrimidine-3-carboxamide trifluoroacetate]"
< 1000 nM,,,CC(NC(=O)c1c(N)nn2cccnc12)c1cc(Cl)c2cn[nH]c2c1-c1ccccc1 (stereo not drawn) [Example 14]
< 1000 nM,,,CC(NC(=O)c1c(N)nn2cccnc12)c1cc(Cl)c2c(Br)n[nH]c2c1-c1ccccc1 (stereo not drawn) [Example 23]
< 500 nM,,,Cc1ncc2c(Cl)cc(C(C)NC(=O)c3c(N)nn4cccnc34)c(-c3cccc(F)c3)n12 (stereo not drawn) [Example 26]
,< 500 nM,< 500 nM,"CCOc1c(C(C)NC(=O)c2c(N)nc3ccc(C)nn23)cc(Cl)c2cn[nH]c12 (stereo not drawn) [Example 46, 2-Amino-N-(1-(4-chloro-7-ethoxy-1H-indazol-6-yl)ethyl)-6-methylimidazo[1,2-b]pyridazine-3-carboxamide]"
,< 500 nM,< 500 nM,"CCOc1c(C(C)NC(=O)c2c(N)nc3ccc(N4CCCCC4)nn23)cc(Cl)c2cn[nH]c12 (stereo not drawn) [Example 47, 2-Amino-N-(1-(4-chloro-7-ethoxy-1H-indazol-6-yl)ethyl)-6-(piperidin-1-yl)imidazo[1,2-b]pyridazine-3-carboxamide]"
,< 500 nM,≥ 2000 nM,"CC(NC(=O)c1c(N)nn2cccnc12)c1cc(Cl)c2cncn2c1N1CCCC(F)C1 (stereo not drawn) [Example 73C-73D, 2-Amino-N-{1-[8-chloro-5-(3-fluoropiperidin-1-yl)imidazo[1,5-a]pyridin-6-yl]ethyl}pyrazolo[1,5-a]pyrimidine-3-carboxamide]"
,< 500 nM,< 2000 nM,"CC(NC(=O)c1c(N)nn2cccnc12)c1cc(Cl)c2cn[nH]c2c1C1=CCN(C(=O)OCc2ccccc2)CC1 (stereo not drawn) [Example 98, Benzyl 4-[6-(1-{[(2-aminopyrazolo[1,5-a]pyrimidin-3-yl)carbonyl]amino}ethyl)-4-chloro-2H-indazol-7-yl]-3,6-dihydropyridine-1(2H)-carboxylate bis(trifluoroacetate)]"
,< 100 nM,< 100 nM,"C[C@H](NC(=O)c1c(N)nn2cccnc12)c1cc(Cl)c2c(Cl)ncn2c1N1CCNS(=O)(=O)CC1 [Example 160, 2-Amino-N-{(1S)-1-[1,8-dichloro-5-(1,1-dioxido-1,2,5-thiadiazepan-5-yl)imidazo[1,5-a]pyridin-6-yl]ethyl}pyrazolo[1,5-a]pyrimidine-3-carboxamide trifluoroacetate salt]"
,< 100 nM,< 100 nM,"C[C@H](NC(=O)c1c(N)nn2cccnc12)c1cc(Cl)c2c(Cl)ncn2c1N1CCNC(=O)CC1 [Example 161, 2-Amino-N-{(1S)-1-[1,8-dichloro-5-(5-oxo-1,4-diazepan-1-yl)imidazo[1,5-a]pyridin-6-yl]ethyl} pyrazolo[1,5-a] pyrimidine-3-carboxamide trifluoroacetate salt]"
< 500 nM,,,"CCCC(NC(=O)c1c(N)nn2cccnc12)c1cc(Cl)c2cncn2c1N1CCS(=O)(=O)CC1 (stereo not drawn) [Example 178, trifluoroacetate salt]"

SMILES,IC50 [1],IC50 [2],IC50 [3]
"CCc1n[nH]c2c(-c3ccccc3)c(C(C)NC(=O)c3c(N)nn4cccnc34)cc(Cl)c12 (stereo not drawn) [Example 51, 2-Amino-N-(1-(4-chloro-3-ethyl-7-phenyl-1H-indazol-6-yl)ethyl)pyrazolo[1,5-a]pyrimidine-3-carboxamide trifluoroacetate]",,< 2000 nM,≥ 2000 nM
"CC(NC(=O)c1c(N)nn2cccnc12)c1cc(Cl)c2cn[nH]c2c1OCCCN (stereo not drawn) [Example 64, 2-Amino-N-{1-[7-(3-aminopropoxy)-4-chloro-1H-indazol-6-yl]ethyl}pyrazolo[1,5-a]pyrimidine-3-carboxamide bis(trifluoroacetate)]",,< 500 nM,< 500 nM
"CC(NC(=O)c1c(N)nn2cccnc12)c1cc(Cl)c2cn[nH]c2c1C1=CCNCC1 (stereo not drawn) [Example 99, 2-Amino-N-{1-[4-chloro-7-(1,2,3,6-tetrahydropyridin-4-yl)-2H-indazol-6-yl]ethyl}pyrazolo[1,5-a]pyrimidine-3-carboxamide bis(trifluoroacetate)]",,< 500 nM,< 100 nM
"CC(NC(=O)c1c(N)nn2cccnc12)c1cc(Cl)c2cn[nH]c2c1N1CCC(C(=O)N(C)C)CC1 (stereo not drawn) [Example 108, 2-Amino-N-[1-(4-chloro-7-{4-[(dimethylamino)carbonyl]piperidin-1-yl}-2H-indazol-6-yl)ethyl]pyrazolo[1,5-a]pyrimidine-3-carboxamide trifluoroacetate]",,< 100 nM,< 500 nM
